According to patent US20230190760A1, “ADVANTAGEOUS THERAPIES FOR DISORDERS MEDIATED BY IKAROS OR AIOLOS” (C4 Therapeutics, Inc., priority 2020, published 2023):

Columns and labels:
IKZF1/3 [1] = assay: Ex vivo IKZF1/3 degradation in PBMC, dog; type: cell-based; settings: dog cells
Procedure: (§1) IKZF1/3 are not degraded in mouse cells treated with thalidomide or its IMiD® analogs because of a single amino acid difference in mouse cereblon compared to human cereblon that causes steric hindrance and prevents recruitment of IKZF1/3. Ex vivo studies were performed in peripheral blood cells (PBMC) of mice, rats, dogs, and monkeys to identify relevant species for IND enabling-toxicity studies based on the degree of IKZF1 degradation by Compound 1. IKZF1 was not degraded in mouse or rat cells by Compound 1, thus, while rat could not be considered a pharmacologically relevant species for human risk assessment, it was chosen as the rodent species for toxicological studies because it is widely used in toxicity testing and a substantial historical toxicology database is available. […] Therefore, cynomolgus monkey was chosen for non-rodent toxicological studies.

[2] = tested on: REC1 mantle cell lymphoma tumors; assay: REC1 mantle cell lymphoma xenograft, balb/c nude mice; type: in vivo
Procedure: A xenograft study was conducted in female balb/c nude mice bearing REC1 mantle cell lymphoma tumors.
Statistical analysis was performed using two-way analysis of variance (ANOVA). Data are expressed as MTV±SEM.

[3] = tested on: IMiD-resistant NCIH929 cells; assay: Growth of IMiD-resistant NCIH929 cells (CellTiter-Glo)
KMS-26 = assay: Anti-proliferative activity, 96 hours; settings: KMS-26, 96 h
RL = assay: Anti-proliferative activity, 96 hours; settings: Homo sapiens
[4] = Plasma PK and interconversion in rat; type: in vivo; settings: Compound 1 30 mg/kg PO
Procedure: Compound 1 was administered to a rat at a concentration of 30 mg/kg PO and monkeys at a concentration of either 60 μg/kg or 100 μg/kg PO. At the indicated timepoints shown in FIG. 25A and FIG. 25B, plasma samples were collected and the Cmax, half-life, and AUC0-inf were determined for both Compound 1 and a metabolite of Compound 1, Compound 14. The percent of Compound 14 was also determined (Table 13). PK values dose normalized to 1 mg/kg. FIG. 25A is a graph measuring the concentration of Compound 1 or Compound 14 over the course of 24 hours in monkeys administered 100 μg/kg or 60 μg/kg of Compound 1. FIG. 25B is a graph measuring the concentration of Compound 1 or Compound 14 over the course of 24 hours in a rat administered 30 mg/kg of Compound 1.

DL40 = assay: Anti-proliferative activity, 96 hours
NHL cell lines = assay: NHL cell line growth inhibition assay (CellTiter-Glo, 96 hr); type: cell-based; settings: variety of cancer assays (FIG. 45A-C, FIG. 52)
NCIH929 cells = assay: NCI-H929 viability assay (CellTiter-Glo)
OCI-LY10 = assay: Anti-proliferative activity, 96 hours; settings: Homo sapiens, OCI-Ly10, 96 h
IKZF1 = target: T1, IKZF1 (Mus musculus, UniProt Q03267); assay: Ex vivo IKZF1 degradation in PBMC, mouse; type: cell-based; settings: mouse cells
T1 construct: from tissue; host or cells: peripheral blood cells (PBMC) of mice, ex vivo
Procedure: as §1

[5] = tested on: activated B-cell DLBCL lines; assay: Anti-cancer activity in ABC-DLBCL cell lines; type: cell-based; settings: three of six responsive, read-out: mean IC50 amongst the responsive lines
[6] = target: T2, cereblon-NanoLuc fusion protein in 293T cells (Homo sapiens, UniProt Q96SW2); assay: In-cell cereblon competition (NanoBRET tracer displacement); type: cell-based; settings: 2 hours at 37° C.; read-out: IC50, 50% of the tracer displaced
T2 construct: expressed in transfected cells; host or cells: 293T cells, lentiviral

MM.1S = assay: Anti-proliferative activity, 96 hours; settings: Homo sapiens, MM1.S
TMD8 DLBCL tumors = settings: Compound 1 50 μg/kg, Ibrutinib 12500 μg/kg
DL-40 ALCL tumors = assay: DL-40 ALCL xenograft efficacy (Example 18); type: in vivo, mice; settings: PO daily for 21 days
Procedure: A xenograft study was conducted in female NOD SCID mice bearing DL-40 ALCL tumors.
Data are expressed as MTV±SEM.

[7] = tested on: multiple myeloma cell lines; assay: Anti-cancer activity in a panel of multiple myeloma cell lines; type: cell-based; settings: eight of twelve were responsive, read-out: mean IC50 among responsive lines
[8] = tested on: RPMI-8226 multiple myeloma tumors; settings: Combination
IKZF1/3 [9] = assay: Biomarker assessment in MM and ALCL tumor bearing studies; type: in vivo
[10] = target: T3, Sal-like protein 4 (SALL4) (Homo sapiens, UniProt Q96SW2+Q9UJQ4); assay: SALL4 degradation in KELLY neuroblastoma cell line; type: cell-based; settings: at 10 nM
T3 construct: endogenous in cells; host or cells: KELLY neuroblastoma cell line
Procedure: Specific studies were carried out to assess the ability of Compound 1 to degrade Sal-like protein 4 (SALL4), a protein implicated in the teratogenicity induced by the IMiD®s class of IKZF1/IKZF3 degraders.

LP-1 = assay: Anti-proliferative activity, 96 hours; settings: Homo sapiens, LP-1, 96 h
IKZF3 = target: T4, IKZF3 (Homo sapiens, UniProt Q96SW2+Q9UKT9); assay: NCI-H929 xenograft pharmacodynamic and pharmacokinetic study (Example 40); type: in vivo, mice
T4 construct: from tissue; host or cells: NCI-H929 MM xenograft tumours in female NOD SCID mice

SMILES: O=C1CC[C@H](N2C(=O)c3cccc4c(Cc5ccc(CN6CCOCC6)cc5)ccc2c34)C(=O)N1 (single isomer, unassigned) [Compound 1]
- effect on IKZF1/3 (IKZF1/3 [1]): no effect
- Statistical Significance Compared to Vehicle ([2]; 30 μg/kg PO daily): 0.04
- Statistical Significance Compared to Vehicle ([2]; 100 μg/kg PO daily): 0.04
- tumor volume ([2]; Compound 1 10, 30, or 100 μg/kg, pomalidomide 3000 μg/kg, 18 days): decreased
- maximal inhibition ([3]; 96 hours): 70%
- IC50 ([3]; Homo sapiens, NCI-H929, 96 h): 2.3 nM
- IC50 (KMS-26): 0.789 nM
- IC50 (RL): 2.32 nM
- AUC(0-inf) ([4]; dose normalized to 1 mg/kg): 784 ng·h/mL
- Cmax ([4]; dose normalized to 1 mg/kg): 110 ng/mL
- half-life ([4]; read-out: T ½ (converted)): 2.3 h
- IC50 (DL40): 0.91 nM
- more potent than pomalidomide (NHL cell lines): more than 100 fold
- Mean Emax (%) ± SD, H929 Viability (NCIH929 cells; 96 hours, % viability): 4.0 ± 0.5%
- maximal growth inhibition (NCIH929 cells; previously untreated NCIH929): 96%
- IC50 (NCIH929 cells; read-out: Mean IC50 (nM), H929 Viability, 96 hours): 0.071 nM
- IC50 (OCI-LY10): 0.03 nM
- IKZF1 degradation (IKZF1): not degraded
- IC50 [5]: 1.6 nM
- IC50 [6]: 0.4 nM
- IC50 (MM.1S): 0.036 nM
- Median Survival (TMD8 DLBCL tumors; Combination of both, PO daily): 30
- Statistical Significance Compared to Vehicle (TMD8 DLBCL tumors; survival, Logrank, Combination): 0.02
- tumor volume versus pomalidomide (DL-40 ALCL tumors): more successful at decreasing tumor volume than pomalidomide
- IC50 [7]: 0.3 nM
- Median Survival ([8]; Compound 1 10 μg/kg PO daily, Dexamethasone 5000 μg/kg IV once a week): 33
- Statistical Significance Compared to Vehicle ([8]; survival, Logrank, Compound 1 10 μg/kg, Dexamethasone 5000 μg/kg): 0.007
- degradation of both IKZF1/3 (IKZF1/3 [9]): > 75%
- duration of IKZF1/3 degradation (IKZF1/3 [9]): 24 h
- degradation of SALL4 [10]: more than 85%
- IC50 (LP-1): 0.642 nM
- time for the IKZF3 level to reach 50% of its pretreatment level (IKZF3; NCI-H929 tumor model, single dose): more than 48 hours
- duration of plasma and tumor concentrations (IKZF3; dosed at a 10-fold lower dose than CC-92480): measurable plasma and tumor concentrations for longer than CC-92480
